PubChem BioAssay AID330 (DTP/NCI, 2004)
Several values for one entry are separate records, joined by “and”; a condition that tells them apart may be missing. Equal entries are not always repeated. Toxic doses and inconclusive results are not listed. How the source made its calls: active means survival T/C of 150% or more; inactive means T/C below 125% in these data.

System: P388 leukemia ip, CD2F1 mice, survival T/C
Experiment: NCI In Vivo Anticancer Drug Screen. Data for tumor model P388 Leukemia (intraperitoneal) in CD2F1 (CDF1) mice
Conditions: endpoint: median survival time, higher = longer survival
Procedure, shortened: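 Mice carrying the transplanted tumor received test compound or vehicle. Survival was recorded in each group, and the value is the treated-group measurement divided by that of the vehicle-treated control group.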

[1] = dose: 60.0 mg/kg/injection, schedule: Q01DX005 (ip), vehicle: Klucel (hydroxypropylcellulose) (HPC)
[2] = dose: 120.0 mg/kg/injection, schedule: Q01DX005 (ip), vehicle: Klucel (hydroxypropylcellulose) (HPC)
[3] = dose: 60.0 mg/kg/injection, schedule: Q01DX005 (ip), vehicle: saline with Tween-80
[4] = dose: 120.0 mg/kg/injection, schedule: Q01DX005 (ip), vehicle: saline with Tween-80
[5] = dose: 240.0 mg/kg/injection, schedule: Q01DX005 (ip), vehicle: saline with Tween-80
[6] = dose: 100.0 mg/kg/injection, schedule: Q04DX003 (ip), vehicle: saline with Tween-80
[7] = dose: 200.0 mg/kg/injection, schedule: Q04DX003 (ip), vehicle: saline with Tween-80
[8] = dose: 12.5 mg/kg/injection, schedule: Q01DX009 (ip), vehicle: distilled water + Tween-80
[9] = dose: 25.0 mg/kg/injection, schedule: Q01DX009 (ip), vehicle: distilled water + Tween-80
[10] = dose: 50.0 mg/kg/injection, schedule: Q01DX009 (ip), vehicle: distilled water + Tween-80
[11] = dose: 100.0 mg/kg/injection, schedule: Q01DX009 (ip), vehicle: distilled water + Tween-80
[12] = dose: 6.25 mg/kg/injection, schedule: Q01DX009 (ip), vehicle: saline with Tween-80
[13] = dose: 12.5 mg/kg/injection, schedule: Q01DX009 (ip), vehicle: saline with Tween-80
[14] = dose: 25.0 mg/kg/injection, schedule: Q01DX009 (ip), vehicle: saline with Tween-80
[15] = dose: 50.0 mg/kg/injection, schedule: Q01DX009 (ip), vehicle: saline with Tween-80
[16] = dose: 100.0 mg/kg/injection, schedule: Q01DX009 (ip), vehicle: saline with Tween-80

Measured: T/C

O=c1[nH]nc2c3cccc4cccc(c5ccc(O)c1c52)c43
inactive: [1] 103 % of control | [2] 97 % of control | dose: 240.0 mg/kg/injection, schedule: Q01DX005 (ip), vehicle: Klucel (hydroxypropylcellulose) (HPC) 97 % of control

CC1(C)CC2(Nc3ccccc3N2)C2=C(O1)C(=O)OC2
inactive: [3] 101 % of control | [4] 103 % of control | [5] 92 % of control

C=CCNc1ccc(OC)cc1
inactive: dose: 50.0 mg/kg/injection, schedule: Q04DX003 (ip), vehicle: saline with Tween-80 100 % of control | [6] 100 % of control | [7] 100 % of control

[O-]/[N+]1=[N+](\[O-])c2ccccc2CCc2ccccc21
inactive: [3] 100 % of control | [4] 102 % of control | [5] 105 % of control

COc1ccc([N+](=O)[O-])c(/C=C/C(=O)c2ccccn2)c1
inactive: [8] 98 % of control | [9] 100 % of control | [10] 97 % of control | [11] 98 % of control | dose: 200.0 mg/kg/injection, schedule: Q01DX009 (ip), vehicle: distilled water + Tween-80 104 % of control

COc1cc2c(c(OC)c1OC)-c1cc3c(cc1[C@@H](OC(C)=O)[C@@H]1COC(=O)[C@H]1C2)OCO3
inactive: dose: 1.25 mg/kg/injection, schedule: Q01DX009 (ip), vehicle: Klucel (hydroxypropylcellulose) (HPC) 100 % of control | dose: 2.5 mg/kg/injection, schedule: Q01DX009 (ip), vehicle: Klucel (hydroxypropylcellulose) (HPC) 111 % of control | dose: 5.0 mg/kg/injection, schedule: Q01DX009 (ip), vehicle: Klucel (hydroxypropylcellulose) (HPC) 95 % of control | dose: 10.0 mg/kg/injection, schedule: Q01DX009 (ip), vehicle: Klucel (hydroxypropylcellulose) (HPC) 97 % of control

Cc1nc2ccccc2c(=O)n1/N=C1/C(=O)Nc2ccccc21
inactive: dose: 25.0 mg/kg/injection, schedule: Q01DX005 (ip), vehicle: Klucel (hydroxypropylcellulose) (HPC) 90 % of control | dose: 50.0 mg/kg/injection, schedule: Q01DX005 (ip), vehicle: Klucel (hydroxypropylcellulose) (HPC) 90 % of control | dose: 100.0 mg/kg/injection, schedule: Q01DX005 (ip), vehicle: Klucel (hydroxypropylcellulose) (HPC) 88 % of control | dose: 200.0 mg/kg/injection, schedule: Q01DX005 (ip), vehicle: Klucel (hydroxypropylcellulose) (HPC) 103 % of control

CCCCCCCCCCCCCCCCS(=O)(=O)N/N=C(\c1ccc(C(C)C)cc1)N1CCOCC1
inactive: dose: 50.0 mg/kg/injection, schedule: Q01DX009 (ip), vehicle: Klucel (hydroxypropylcellulose) (HPC) 90 % of control | dose: 100.0 mg/kg/injection, schedule: Q01DX009 (ip), vehicle: Klucel (hydroxypropylcellulose) (HPC) 89 % of control | dose: 200.0 mg/kg/injection, schedule: Q01DX009 (ip), vehicle: Klucel (hydroxypropylcellulose) (HPC) 90 % of control

CC(=Nc1ccc(Cl)cc1N)c1c(O)cc(C)oc1=O
inactive: [1] 91 % of control | [2] 96 % of control

CCOC(=O)CC(=N)C(C#N)C(=O)OCC (stereo unspecified)
inactive: [12] 101 % of control | [13] 101 % of control | [14] 99 % of control | [15] 99 % of control

CN(C)C=C1C=c2cc(C(=O)c3ccccc3)c(=O)c(C(=O)c3ccccc3)cc2=C1
inactive: dose: 100.0 mg/kg/injection, schedule: Q01DX001 (ip), vehicle: saline 108 % of control | dose: 200.0 mg/kg/injection, schedule: Q01DX001 (ip), vehicle: saline 108 % of control | dose: 400.0 mg/kg/injection, schedule: Q01DX001 (ip), vehicle: saline 97 % of control

Cc1nnc2cc3ccccc3cn12
inactive: dose: 50.0 mg/kg/injection, schedule: Q01DX005 (ip), vehicle: saline with Tween-80 89 % of control | dose: 100.0 mg/kg/injection, schedule: Q01DX005 (ip), vehicle: saline with Tween-80 97 % of control | dose: 200.0 mg/kg/injection, schedule: Q01DX005 (ip), vehicle: saline with Tween-80 100 % of control

Nc1ccc2ccc(NS(=O)(=O)N3CCCCC3)cc2c1
inactive: dose: 25.0 mg/kg/injection, schedule: Q01DX005 (ip), vehicle: saline with Tween-80 108 % of control

C=C1C(=O)C23C(O)CC4C(C)(C)C(OC(C)=O)C(OC(C)=O)CC4(C)C2CCC1C3O (stereo unspecified)
inactive: dose: 11.88 mg/kg/injection, schedule: Q01DX005 (ip), vehicle: Klucel (hydroxypropylcellulose) (HPC) 115 % of control | dose: 23.75 mg/kg/injection, schedule: Q01DX005 (ip), vehicle: Klucel (hydroxypropylcellulose) (HPC) 112 % of control | dose: 47.5 mg/kg/injection, schedule: Q01DX005 (ip), vehicle: Klucel (hydroxypropylcellulose) (HPC) 112 % of control

O=C1OC2C(O1)C1(c3ccccc3)C(=O)C2(c2ccccc2)C(c2ccccc2)=C1c1ccccc1 (stereo unspecified)
inactive: [12] 107 % of control and 96 % of control | [13] 106 % of control and 94 % of control | [14] 101 % of control and 96 % of control | [15] 98 % of control and 105 % of control | [16] 89 % of control

COc1ccc2cc1Oc1ccc(cc1)C[C@H]1c3cc(c(OC)cc3CCN1C)Oc1c(OC)c(OC)cc3c1[C@H](C2)N(C)CC3
inactive: dose: 12.5 mg/kg/injection, schedule: Q01DX009 (ip), vehicle: other 94 % of control and 95 % of control | dose: 25.0 mg/kg/injection, schedule: Q01DX009 (ip), vehicle: other 100 % of control and 97 % of control | dose: 25.0 mg/kg/injection, schedule: Q04DX003 (ip), vehicle: suspension in saline 98 % of control | dose: 50.0 mg/kg/injection, schedule: Q01DX009 (ip), vehicle: other 100 % of control and 97 % of control | dose: 50.0 mg/kg/injection, schedule: Q04DX003 (ip), vehicle: suspension in saline 88 % of control | dose: 100.0 mg/kg/injection, schedule: Q01DX009 (ip), vehicle: other 103 % of control | dose: 100.0 mg/kg/injection, schedule: Q04DX003 (ip), vehicle: suspension in saline 89 % of control | dose: 200.0 mg/kg/injection, schedule: Q04DX003 (ip), vehicle: suspension in saline 87 % of control

O=C1c2cc3ccccc3cc2NC(O)c2cccn21 (stereo unspecified)
inactive: dose: 0.1 mg/kg/injection, schedule: Q01DX005 (ip), vehicle: water 96 % of control | dose: 0.2 mg/kg/injection, schedule: Q01DX005 (ip), vehicle: water 91 % of control | dose: 0.4 mg/kg/injection, schedule: Q01DX005 (ip), vehicle: water 100 % of control | dose: 0.8 mg/kg/injection, schedule: Q01DX005 (ip), vehicle: water 107 % of control | dose: 1.6 mg/kg/injection, schedule: Q01DX005 (ip), vehicle: water 116 % of control | dose: 5.0 mg/kg/injection, schedule: Q01DX005 (ip), vehicle: distilled water + Tween-80 100 % of control | dose: 10.0 mg/kg/injection, schedule: Q01DX005 (ip), vehicle: distilled water + Tween-80 107 % of control | dose: 20.0 mg/kg/injection, schedule: Q01DX005 (ip), vehicle: distilled water + Tween-80 100 % of control | dose: 40.0 mg/kg/injection, schedule: Q01DX005 (ip), vehicle: distilled water + Tween-80 99 % of control | dose: 80.0 mg/kg/injection, schedule: Q01DX005 (ip), vehicle: distilled water + Tween-80 101 % of control

CCOC(=O)c1nc(C(Br)(Br)Br)[nH]c(=O)c1C
inactive: dose: 6.25 mg/kg/injection, schedule: Q01DX009 (ip), vehicle: distilled water + Tween-80 102 % of control | [8] 113 % of control | [9] 116 % of control | [10] 113 % of control | [11] 113 % of control

O=C(O)c1cc(=O)n(CCCCCCn2c(=O)cc(C(=O)O)[nH]c2=O)c(=O)[nH]1
inactive: [15] 98 % of control | [16] 104 % of control | dose: 200.0 mg/kg/injection, schedule: Q01DX009 (ip), vehicle: saline with Tween-80 111 % of control

C=C(C)CSc1ncnc2nc[nH]c12
inactive: [6] 104 % of control | [7] 100 % of control | dose: 400.0 mg/kg/injection, schedule: Q04DX003 (ip), vehicle: saline with Tween-80 100 % of control

[NH-]C(C[S-])C(=O)O.[NH-]C(C[S-])C(=O)O.[O]=[Mo]1[O][Mo](=[O])[O]1 (stereo unspecified)
inactive: dose: 50.0 mg/kg/injection, schedule: Q01DX009 (ip), vehicle: saline 99 % of control | dose: 100.0 mg/kg/injection, schedule: Q01DX009 (ip), vehicle: saline 90 % of control | dose: 200.0 mg/kg/injection, schedule: Q01DX009 (ip), vehicle: saline 104 % of control
